Literature values as cited in patent publication US20040131702A1, “Use of selenite or preparation containing selenite for treating wounds” (priority 2001, published 2004).
Where “and” joins values, the source holds several entries; their conditions need not be identical. Identical values can stand only once.

Experiments:
[1] = acid environment
animals = conditions: in vivo
human body = conditions: in vivo

Compound | Standard redox potential E0 [1] | Selenium content of food above which animals exhibit symptoms of poisoning (animals) | Selenium content of the daily food above which the human body will fall ill (human body)
O=[Se](O)O [selenite] | −0.740 Volt and −0.740 (acid environment) Volt | – | –
[Se] [selenium] | – | 5 to 10 μg of selenium/g | more than 1 μg of selenium/g
